Results on one substance are retold here after US20250263457A1, “Pharmaceutical Composition for Preventing and Treating Liver Disease Comprising Novel Peptide” (Pusan National University Industry-University Cooperation …, priority 2024, published 2025).

Test [1] relates to human pHSCs. Kind of test: Western blot of HSC activation/inactivation markers in human pHSCs. Format: cell-based. Conditions: 40 ng/ml, vs control (FIG. 2C). As to the method: To confirm the expression of cell activation markers, human pHSCs (5× 10^5 cells/ml) were treated with peptide YJ at a concentration of 20 or 40 ng/ml, and then proteins were extracted and subjected to Western blotting. At this time, as primary antibodies, anti-α-SMA antibody (Sigma-Aldrich, A5228), anti-GAPDH antibody (Bio-rad, MCA4739), anti-GFAP antibody (Dako, z0334), and anti-TFG-β antibody (Cell Signaling Technology, 3711) were used. In addition, as secondary antibodies, Goat anti-mouse IgG F(ab′) 2 antibody (HRP conjugate) (Enzo, ADI-SAB-100-J) and Goat anti-rabbit IgG antibody (HRP conjugate) (Enzo, ADI-SAB-300-J) were used.

Test [2] deals with CD44. Kind of test: Immunofluorescence of CD44ICD and α-SMA in human pHSCs. Format: cell-based. The conditions noted are these: 40 ng/ml, immunofluorescence (FIG. 3B). The method, then:
The cleavage of CD44 and the expression of the activation marker of pHSCs by peptide YJ treatment were confirmed through immunofluorescence. At this time, human pHSCs treated with PBS were used as a control group.
Specifically, human pHSCs (5×10^4 cells/ml) were seeded on coverslips and then cultured overnight. The cells were treated with peptide YJ at a concentration of 40 ng/ml and further cultured for 6, 12, and 24 hours, respectively. The cells were fixed and permeabilized by treating each cell with 4% paraformaldehyde and 0.01% Triton X-100. To inhibit non-specific binding of antibodies, blocking (Dako, X9090) was performed, and then the primary antibodies were treated and reacted overnight at 4° C. At this time, the primary antibodies used were anti-CD44ICD antibody (Cosmo Bio, KAL-KO601) and α-SMA (Sigma-Aldrich, A5228). Thereafter, the cells were washed with TBS, treated with a secondary antibody, and reacted at room temperature for 30 minutes. The secondary antibody used were Alexa Fluor 488-conjugated chicken anti-mouse IgG antibody (Invitrogen, A21200) or Alexa Fluor 568-conjugated goat anti-rabbit IgG antibody (Invitrogen, A10042). The cells were washed with TBS, and then treated with 4′,6-diamidino-2-phenylinole (DAPI, VECTASHIELD, H-1200-10) to perform nuclear staining. Finally, the coverslip was fixed on a slide glass using a mounting solution and then observed with a confocal microscope DMi8-S (Leica Microsystems) or CLSM21 (Carl Zeiss Inc.).

In the case of “peptide YJ: TSG-6 fragment: core domain RSGKYKLTYAEAKA plus C-terminal extension VCEFEGGHLATYKQLEAARKIGFHVCAAGWMAK (SEQ ID NO: 9); TSG-6 mimetic (RSGKYKLTYAEAKAVCEFEGGHLATYKQLEAARKIGFHVCAAGWMAK; peptide 4)”, in test [1], the “expression of GFAP (inactivation marker)” value is “increased” and the “expression of activation markers of pHSCs” value was “decreased”. Moreover, in test [2] (12 hours), the “expression of CD44ICD in the nucleus” value is “decreased” and the “expression of α-SMA” value is recorded as “decreased”. In test [2] (24 hours), the “expression of CD44ICD in the nucleus” value is “no expression of CD44ICD in the nucleus was observed” and the “expression of α-SMA” value was “significantly decreased”.
